Measured values: PMC8805583, “Discovery of Herbacetin as a Novel SGK1 Inhibitor to Alleviate Myocardial Hypertrophy” (Advanced Science, 2021)
pIC50: −log10 of the molar value. Each block holds one compound with its values, some of them ahead of it.

How the values were obtained:
[1] = biological target: T1, SGK1 (Homo sapiens, UniProt O00141); test: Mass spectrometry-based SGK1 kinase inhibitory assay (LC/MS of phosphorylated […]); assay type: biochemical; settings: for reduction in SGK1 inhibitory activity, absence of -OH at C-8: compared with HBT
T1 sequence (O00141 1-431): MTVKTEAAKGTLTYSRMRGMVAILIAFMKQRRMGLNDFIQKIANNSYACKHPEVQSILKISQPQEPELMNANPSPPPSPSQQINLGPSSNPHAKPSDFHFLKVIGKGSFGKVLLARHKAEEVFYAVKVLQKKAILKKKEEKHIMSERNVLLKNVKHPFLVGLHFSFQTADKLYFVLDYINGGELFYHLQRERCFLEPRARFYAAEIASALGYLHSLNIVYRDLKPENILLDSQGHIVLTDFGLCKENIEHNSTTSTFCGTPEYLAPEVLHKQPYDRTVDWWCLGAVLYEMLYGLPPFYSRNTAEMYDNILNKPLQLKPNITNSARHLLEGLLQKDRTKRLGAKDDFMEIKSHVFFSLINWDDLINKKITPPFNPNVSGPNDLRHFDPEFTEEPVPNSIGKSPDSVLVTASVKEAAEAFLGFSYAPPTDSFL
Source text: To identify active compounds with SGK1 inhibitory activity from Ext.R, a novel mass‐spectrometry based kinase inhibitory assay was developed. A polypeptide sequence ([…], m/z: 618.6) derived from glycogen Synthase Kinase‐3(GSK3), a known substrate of SGK1, was optimized and synthesized. We subsequently used liquid chromatography coupled with mass spectrometry (LC/MS) to detect and quantify its phosphorylation level ([…](p)FAE, m/z:658.7) (Figure 3A).^[ [26] ^] Basal level SGK1 was supplemented to each well, and the peak area of phosphorylation was measured in the presence or absence of testing compounds. […] After investigating the major chemical constituents in Ext.R (Table S3, Supporting Information), a set of compounds in Ext.R were subsequently screened for their impacts on SGK1 activity. […] The direct interaction between HBT and SGK1 was further verified by temperature‐ and dose‐dependent cellular thermal shift assays (Figure 3E,F). We further performed a direct binding assay of HBT to SGK1 by KINOMEscan assay (Eurofins Discovery).
Synthesis of […] was prepared by Shanghai Sangong Biotech. In order to ensure the phosphorylation reaction of SGK1, SGK1 (0.25 µg mL^−1) was added to kinase buffer (25 mmol Tris [pH 7.5], 5 mmol β‐glycerolphosphate, 2 mmol DTT, 10 mmol MgCl2) with the substrate peptide […] (25 µmol) and ATP (200 µmol) and incubated for 1 h at 30 °C in the presence or absence of inhibitors. A concentration‐dependent assay for SGK1 at different concentrations (0.05, 0.1, 0.2, 0.25, and 0.3 µg mL^−1) was performed. Reactions were terminated by the addition of methyl alcohol with 0.1% trifluoroacetic acid (TFA), and supernatants were analyzed by the Agilent 1100 LC system (Agilent Technologies, USA) and a 1946D single quadrupole mass spectrometer. The acquisition parameters for LC/MS were set for positive ionization mode and selected ion monitoring (SIM) m/z values of 618.6 and 658.7 for the substrate peptide and product peptide respectively. Chromatographic separation was performed by a reversed‐phase ZORBAX SB‐C18 analytical column. The mobile phase included water containing 0.1% v/v TFA (A) and acetonitrile containing 0.1% v/v TFA (B). The flow rate was 0.6 mL min^−1. A gradient program was carried out according to the following profile: 0 min, 13% B; 15 min, 28% B; 16 min, 100% B. The constituents of Ext.R were screened by the assay to evaluate their inhibitory effects on SGK1 activity. A minimum of three replicates of each sample were analyzed and averaged together. Inhibition of SGK1 was calculated by the following equation (1) Inhibitionrate%=PC−PS/PC P C and P S represented the peak area of product peptide in the control group without test compounds and the tested sample group with various test compounds, respectively.

[2] = system: SGK1-dependent phosphorylation of NDRG1; set-up: method as in PMID 21865856; settings: cited from earlier work
[3] = MS-based kinase inhibitory assay

reduction in SGK1 inhibitory activity, absence of -OH at C-8 [1]: greater than 10 fold
pIC50 ([1]; in figure, n = 3): 4.95
SMILES: O=c1c(O)c(-c2ccc(O)cc2)oc2cc(O)cc(O)c12 [A1]

pIC50 [1, 3]: 6.51
SMILES: O=c1c(O)c(-c2ccc(O)cc2)oc2c(O)c(O)ccc12 [A2, 3,7,8‐trihydroxy‐2‐(4‐hydroxyphenyl) chromen‐4‐one]

reduction in SGK1 inhibitory activity, absence of -OH at C-3 [1]: significant reduction
SMILES: O=c1cc(-c2ccc(O)cc2)oc2c(O)c(O)cc(O)c12 [A3]

reduction in SGK1 inhibitory activity, absence of -OH at C-8 [1]: greater than 10 fold
pIC50 ([1]; in figure, n = 3): 4.94
SMILES: O=c1c(O)c(-c2ccc(O)cc2)oc2cc(O)ccc12 [A4]

reduction in SGK1 inhibitory activity, absence of -OH at C-3 [1]: significant reduction
SMILES: O=c1cc(-c2ccc(O)cc2)oc2c(O)c(O)ccc12 [A5]

SMILES: CCc1c(C(=O)NNC(=O)C(O)c2cc(F)cc(F)c2)ccc(O)c1C (stereo not drawn) [EMD638683, reference compound]
pIC50 [2]: 5.47

pIC50 [1, 3]: 5.09
SMILES: O=C(O)/C=C/c1ccc(O)cc1 [p-coumaric acid]
